Laboratory results taken from patent US5283372A, “Preparation of purified optical isomers of desflurane” (Anaquest, Inc., priority 1993, dated 1994).
Entries after “also recorded” stand apart in the source; their conditions may differ.

Assays:
[1] = test system: Male Sprague-Dawley rats (recovery of motor coordination); experiment: Rotarod testing in rats after recovery of righting (Rotarod Index); format: in vivo, rat (Sprague-Dawley); settings: for Rotarod Index (ROI): ROI=(First+Second×2/3+Third×1/3)/3, average time on rod in seconds at 0, 90, 180 seconds after recovery of righting, maximum 60, rotarod 10 rpm
Procedure: (§1) Male Sprague-Dawley rats were maintained as were the mice in Example 7. The animals were trained to maintain their balance for ninety seconds on a rotarod revolving at 10 rpm. The animals were allowed to rest five minutes and again trained to remain on the rotating rotarod for ninety seconds.
(§2) The rats were individually placed into containers which had been purged with 100% oxygen for one minute, and which contained a known concentration of racemic desflurane, or its positive isomer or negative isomer which had been previously determined to be equal to the EC100. Five rats were utilized for each anesthetic.
Following recovery of righting, the animals were placed on the rotarod 0, 90, and 180 seconds thereafter and the length of time they were able to remain on the rod was recorded in each instance. Animals that remained on the rod for a full ninety seconds were not subsequently tested. The durations of maintaining balance were noted and averaged, and the number of animals meeting the ninety second criterion were recorded at each time interval.
A Rotarod Index (ROI) was then calculated according to the following formula.
ROI=(First+Second×2/3+Third×1/3)/3 where First, Second and Third are the average time on the rod in seconds for the respective time intervals. Animals remaining on the rod for the full ninety seconds during either the interval beginning at zero time or ninety seconds were scored with ninety seconds for all subsequent intervals. Therefore, the maximum ROI attainable was […]. The ROI value measures the recovery of motor coordination following drug-induced LOR.

[2] = test system: Male Sprague-Dawley rats (loss of righting); experiment: Loss of righting (LOR) in rats: onset and recovery at EC100; format: in vivo, rat (Sprague-Dawley); settings: rat; for Recovery (of righting): EC100 concentration, removed five minutes after LOR; for Onset of LOR: at EC100 concentration, five rats per anesthetic
Procedure: as §1, §2
The onset of LOR was recorded for each animal. The animals remained in the container for five minutes following LOR, and were then removed. Recovery was determined, and the mean calculated.
Onset and recovery were compared across anesthetics using a Student's T Test.

[3] = test system: Male Swiss-Webster mice (loss of righting); experiment: Loss of righting (LOR) in mice: potency, onset and recovery of inhaled anesthetic; format: in vivo, mouse (Swiss-Webster); settings: mouse; for Recovery (mean time to ambulation) / Onset (mean time to LOR): at the EC50 concentration; for Onset (mean time to LOR): six animals; for EC50 (loss of righting): inhalation in 1900 ml container flushed with 100% oxygen, LOR within two minutes and supine for thirty seconds, * significant at P<0.05
Procedure: Male Swiss-Webster mice, about 22-25 g, were allowed free access to food and water and housed ten to a cage in a temperature (22.2°) and humidity (50%) controlled vivarium with a twelve hour light-dark cycle.
The test anesthetic was pipetted into a 1900 ml container previously flushed for one minute with 100% oxygen. The container was sealed, rotated to insure complete evaporation of test compound and allowed to stand for five minutes. The approximate concentration of the anesthetic was calculated. Six animals were tested at each concentration of racemate and its purified optical isomers. The animals were placed in the container in groups of three. The container was rotated periodically.
The percentage of mice to lose their righting ability within two minutes and remain supine for thirty seconds was noted. Loss of righting (LOR) at four concentrations, including EC0 and EC100, were used to determine the EC50. Subsequently, onset (defined as the mean time for six animals to LOR) and recovery (defined as the mean time to ambulation) were determined at the EC50 concentration. Potency (defined by the dose-response curve) of each compound was compared using a parallel line analysis. Onset and recovery means were compared using a Student's T-Test P<0.05. The results are reported in Table I. In the Table, "S.D." is standard deviation, "C.L." is confidence level and "EC50 " is the effective concentration in one half of the animals tested.

SMILES	Rotarod Index (ROI) ([1]; rat)	Recovery (of righting) [2] [min]	Onset of LOR [2] [min]	Recovery (mean time to ambulation) [3] [min]	Onset (mean time to LOR) [3] [min]	EC50 (loss of righting) [3] [%]	Rotarod test / time to become "street fit" (in words) ([1]; comparison with racemate and negative isomer)	ROI value (in words) ([1]; rat, comparison of isomers)	Potency (in words) ([3]; highly purified positive isomer, comparison with negative isomer or racemate, listed as positive isomer of desflurane)	Recovery time (in words) ([2]; comparison of isomers)
FC(F)OC(F)C(F)(F)F (racemic) [Racemic Desflurane, 2-(difluoromethoxy)-1,1,1,2-tetrafluoroethane, reference compound]	32.4	1.38	1.04	0.12	1.72	4.75				
FC(F)OC(F)C(F)(F)F (single isomer, unassigned; (+)) [Positive Isomer, (+)-2-(difluoromethoxy-1,1,1,2-tetrafluoroethane]	38.6	0.88	0.92	0.31	1.44	4.1	clearly superior in the rotarod test; also recorded: superior to the racemate and the negative isomer in terms of the time in which a patient would become "street fit"	larger ROI value	greater potency; also recorded: improved potency	
FC(F)OC(F)C(F)(F)F (single isomer, unassigned; (-)) [Negative Isomer, (-)-2-(difluoromethoxy)-1,1,1,2-tetrafluoroethane]	28.8	0.31	1.05	0.25	1.05	4.6				faster recovery time
